Consider 28 molecules from patent US9926264B2, “Phenylcarbamate derivatives as formyl peptide receptor modulators” (Allergan, Inc., priority 2013, dated 2018).

This test concerns the target T1, FPR2 (Homo sapiens, UniProt P25090).
T1 construct: expressed in transfected cells; host or cells: CHO-Gα16 cells
T1 sequence (P25090 1-351): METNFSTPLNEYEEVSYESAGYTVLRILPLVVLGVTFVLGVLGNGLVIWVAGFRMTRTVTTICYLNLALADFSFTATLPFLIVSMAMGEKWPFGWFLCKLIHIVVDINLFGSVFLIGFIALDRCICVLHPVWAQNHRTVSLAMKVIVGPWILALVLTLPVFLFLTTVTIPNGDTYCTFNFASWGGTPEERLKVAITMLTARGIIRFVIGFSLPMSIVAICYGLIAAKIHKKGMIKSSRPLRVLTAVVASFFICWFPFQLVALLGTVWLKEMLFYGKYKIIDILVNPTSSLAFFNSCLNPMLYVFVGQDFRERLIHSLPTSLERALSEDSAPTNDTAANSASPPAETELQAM
In words: compound-induced calcium activity on FLIPR Tetra in CHO-Gα16 cells stably expressing FPR2. In kind it is cell-based. The following applies: for Emax: efficacy value in brackets after EC50, read-out: FPR2 Gα16-CHO (% eff); for EC50: tested 0.61 to 10,000 nM. The method, then: CHO-Gα16 cells stably expressing FPR2 were cultured in (F12, 10% FBS, 1% PSA, 400 μg/ml geneticin and 50 μg/ml hygromycin) and HEK-Gqi5 cells stable expressing FPR1 were cultured in (DMEM high glucose, 10% FBS, 1% PSA, 400 μg/ml geneticin and 50 μg/ml hygromycin). In general, the day before the experiment, 18,000 cells/well were plated in a 384-well clear bottom poly-D-lysine coated plate. The following day the screening compound-induced calcium activity was assayed on the FLIPR^Tetra. The drug plates were prepared in 384-well microplates using the EP3 and the MultiPROBE robotic liquid handling systems. Compounds were tested at concentrations ranging from 0.61 to 10,000 nM. Results are expressed as EC50 (nM) and % efficacy values.

In the case of `CC(C)C[C@H](OC(=O)Nc1ccc(Br)cc1)C(=O)NCC(=O)OC(C)(C)C` [Compound 1, tert-Butyl {[(2S)-2-{[(4-Bromophenyl)carbamoyl]oxy}-4-methylpentanoyl]amino}acetate], the Emax was 89% and the concentration for a half-maximal effect (EC50) (in general, the midpoint of the concentration-response curve) was determined as 526 nM.
For `CC(C)C[C@H](OC(=O)Nc1ccc(C(F)(F)F)cc1)C(=O)NCC(=O)OC(C)(C)C` [Compound 2, tert-Butyl {[(2S)-4-Methyl-2-({[4-(trifluoromethyl)phenyl]carbamoyl}oxy)pentanoyl]amino}acetate], in that order: 112% and 2020 nM.
For `CC(C)C[C@H](OC(=O)Nc1ccc(Br)cc1)C(=O)N(C)CC(=O)OC(C)(C)C` [Compound 3, tert-Butyl {[(2S)-2-{[(4-Bromophenyl)carbamoyl]oxy}-4-methylpentanoyl](methyl)amino}acetate], in that order: 101% and 109 nM.
For `CC(C)C[C@H](OC(=O)Nc1ccc(Br)cc1)C(=O)N(C)CCO` [Compound 4, (2S)-1-[(2-Hydroxyethyl)(methyl)amino]-4-methyl-1-oxopentan-2-yl (4-bromophenyl)carbamate], in that order: 97% and 59 nM.
Consider `CCOP(=O)(CNC(=O)[C@H](CC(C)C)OC(=O)Nc1ccc(C(F)(F)F)cc1)OCC` [Compound 5, Diethyl ({[(2S)-4-methyl-2-({[4-(Trifluoromethyl)phenyl]carbamoyl}oxy)pentanoyl]amino}methyl)phosphonate], for which the Emax turned out to be 101% and the EC50 came to 6.7 nM.
The matching figures for `CC(C)C[C@H](OC(=O)Nc1ccc(C(F)(F)F)cc1)C(=O)NCCO` [Compound 6, (2S)-1-[(2-Hydroxyethyl)amino]-4-Methyl-1-oxopentan-2-yl [4-(trifluoromethyl)phenyl]carbamate]: 75% and 146 nM.
The matching figures for `CC(C)C[C@H](OC(=O)Nc1ccc(Br)cc1)C(=O)NCCO` [Compound 7, (2S)-1-[(2-Hydroxyethyl)amino]-4-methyl-1-oxopentan-2-yl (4-bromophenyl)carbamate]: 98% and 35 nM.
For `CCOP(=O)(CNC(=O)[C@H](CC(C)C)OC(=O)Nc1ccc(Br)cc1)OCC` [Compound 8, Diethyl ({[(2S)-2-{[(4-bromophenyl)carbamoyl]oxy}-4-methylpentanoyl]amino}methyl)phosphonate], in that order: 100% and 1.8 nM.
Consider `CCCN(CC(=O)OC(C)(C)C)C(=O)[C@H](CC(C)C)OC(=O)Nc1ccc(Br)cc1` [Compound 9, tert-Butyl {[(2S)-2-{[(4-Bromophenyl)carbamoyl]oxy}-4-methylpentanoyl](propyl)amino}acetate], for which the Emax worked out at 104% and the EC50 is 4.4 nM.
For `CC(C)C[C@H](OC(=O)Nc1ccc(Br)cc1)C(=O)N(CC(=O)OC(C)(C)C)C(C)C` [Compound 10, tert-Butyl {[(2S)-2-{[(4-Bromophenyl)carbamoyl]oxy}-4-methylpentanoyl](propan-2-yl)amino}acetate], in that order: 103% and 11 nM.
For `CCN(CC(=O)OC(C)(C)C)C(=O)[C@H](CC(C)C)OC(=O)Nc1ccc(Br)cc1` [Compound 11, tert-Butyl {[(2S)-2-{[(4-Bromophenyl)carbamoyl]oxy}-4-methylpentanoyl](ethyl)amino}acetate], in that order: 97% and 8 nM.
For `CC(C)C[C@H](OC(=O)Nc1ccc(C(F)(F)F)cc1)C(=O)N(C)CC(=O)OC(C)(C)C` [Compound 12, tert-Butyl {Methyl[(2S)-4-methyl-2-({[4-(trifluoromethyl)phenyl]carbamoyl}oxy)pentanoyl]amino}acetate], in that order: 100% and 24.8 nM.
As to `CCN(CC(=O)OC(C)(C)C)C(=O)[C@H](CC(C)C)OC(=O)Nc1ccc(C(F)(F)F)cc1` [Compound 13, tert-Butyl {Ethyl[(2S)-4-methyl-2-({[4-(trifluoromethyl)phenyl]carbamoyl}oxy)pentanoyl]amino}acetate], the Emax was determined as 99% and the EC50 was 16.6 nM.
For `CC(C)C[C@H](OC(=O)Nc1ccc(Br)cc1)C(=O)NCc1nnn[nH]1` [Compound 14, (2S)-4-Methyl-1-oxo-1-[(1H-tetrazol-5-ylmethyl)amino]pentan-2-yl (4-bromophenyl)carbamate], in that order: 101% and 1.3 nM.
For `CC(C)C[C@H](OC(=O)Nc1ccc(C(F)(F)F)cc1)C(=O)NCc1nnn[nH]1` [Compound 15, (2S)-4-methyl-1-oxo-1-[(1H-tetrazol-5-ylmethyl)amino]pentan-2-yl [4-(trifluoromethyl)phenyl]carbamate], in that order: 96% and 3.6 nM.
The matching figures for `CC(C)C[C@H](OC(=O)Nc1ccc(Br)cc1)C(=O)N(C)Cc1nnn[nH]1` [Compound 16, (2S)-4-methyl-1-[methyl(1H-tetrazol-5-ylmethyl)amino]-1-oxopentan-2-yl (4-bromophenyl)carbamate]: 98% and 0.81 nM.
Regarding `CC(C)C[C@H](OC(=O)Nc1ccc(C(F)(F)F)cc1)C(=O)N(C)Cc1nnn[nH]1` [Compound 17, (2S)-4-methyl-1-[methyl(1H-tetrazol-5-ylmethyl)amino]-1-oxopentan-2-yl [4-(trifluoromethyl)phenyl]carbamate], the Emax is 91% and the concentration for a half-maximal effect (EC50) is 2.4 nM.
For `CC(=O)OCCNC(=O)[C@H](CC(C)C)OC(=O)Nc1ccc(C(F)(F)F)cc1` [Compound 18, 2-{[(2S)-4-Methyl-2-({[4-(trifluoromethyl)phenyl]carbamoyl}oxy)pentanoyl]amino}ethyl acetate], in that order: 89% and 195 nM.
In the case of `CC(C)C[C@H](OC(=O)Nc1ccc(Br)cc1)C(=O)NCC(=O)O` [Compound 19, {[(2S)-2-{[(4-Bromophenyl)carbamoyl]oxy}-4-methylpentanoyl]amino}acetic acid], the Emax worked out at 101% and the EC50 stood at 0.84 nM.
The matching figures for `CC(C)C[C@H](OC(=O)Nc1ccc(C(F)(F)F)cc1)C(=O)NCC(=O)O` [Compound 20, {[(2S)-4-Methyl-2-({[4-(trifluoromethyl)phenyl]carbamoyl}oxy)pentanoyl]amino}acetic acid]: 99% and 3.9 nM.
`CC(C)C[C@H](OC(=O)Nc1ccc(Br)cc1)C(=O)N(C)CC(=O)O` [Compound 21, {[(2S)-2-{[(4-Bromophenyl)carbamoyl]oxy}-4-methylpentanoyl](methyl)amino}acetic acid]: the Emax was 106% and the EC50 amounted to 0.25 nM.
The matching figures for `CCCN(CC(=O)O)C(=O)[C@H](CC(C)C)OC(=O)Nc1ccc(Br)cc1` [Compound 22, {[(2S)-2-{[(4-Bromophenyl)carbamoyl]oxy}-4-methylpentanoyl](propyl)amino}acetic acid]: 91% and 0.44 nM.
For `CC(C)C[C@H](OC(=O)Nc1ccc(Br)cc1)C(=O)N(CC(=O)O)C(C)C` [Compound 23, {[(2S)-2-{[(4-Bromophenyl)carbamoyl]oxy}-4-methylpentanoyl](propan-2-yl)amino}acetic acid], in that order: 105% and 0.32 nM.
For `CCN(CC(=O)O)C(=O)[C@H](CC(C)C)OC(=O)Nc1ccc(Br)cc1` [Compound 24, {[(2S)-2-{[(4-Bromophenyl)carbamoyl]oxy}-4-methylpentanoyl](ethyl)amino}acetic acid], in that order: 95% and 0.24 nM.
For `CC(C)C[C@H](OC(=O)Nc1ccc(C(F)(F)F)cc1)C(=O)N(C)CC(=O)O` [Compound 25, {Methyl[(2S)-4-methyl-2-({[4-(trifluoromethyl)phenyl]carbamoyl}oxy)pentanoyl]amino}acetic acid], the Emax is 97% and the EC50 came out at 0.94 nM.
The matching figures for `CCN(CC(=O)O)C(=O)[C@H](CC(C)C)OC(=O)Nc1ccc(C(F)(F)F)cc1` [Compound 26, {Ethyl[(2S)-4-methyl-2-({[4-(trifluoromethyl)phenyl]carbamoyl}oxy)pentanoyl]amino}acetic acid]: 98% and 0.29 nM.
For `CC(C)C[C@H](OC(=O)Nc1ccc(Br)cc1)C(=O)N(C)CCOS(=O)(=O)O` [Compound 27, (2S)-4-Methyl-1-{methyl[2-(sulfooxy)ethyl]amino}-1-oxopentan-2-yl (4-bromophenyl)carbamate], in that order: 99% and 8.7 nM.
For `CC(C)C[C@H](OC(=O)Nc1ccc(C(F)(F)F)cc1)C(=O)NCS(=O)(=O)O` [Compound 28, ({(2S)-4-methyl-2-[({[4-(trifluoromethyl)phenyl]amino}carbonyl)oxy]pentanoyl}amino)methanesulfonic acid], in that order: 85% and 4.3 nM.
